According to ChEMBL document CHEMBL3991601, “The target landscape of clinical kinase drugs” (Science, 2017):
The source made the active and inactive calls. Cut-off read from the data, not from the text of the source, for most assays here: actives have a measured Kd and inactives only a lower limit.

Experiments:
[1] = biological target: Calcium/calmodulin-dependent protein kinase kinase 2 (Homo sapiens, UniProt Q96RR4)
[2] = biological target: ATP-dependent RNA helicase DDX3X (Homo sapiens, UniProt O00571)
ATP-dependent RNA helicase DDX3X, sequence (O00571 whole entry): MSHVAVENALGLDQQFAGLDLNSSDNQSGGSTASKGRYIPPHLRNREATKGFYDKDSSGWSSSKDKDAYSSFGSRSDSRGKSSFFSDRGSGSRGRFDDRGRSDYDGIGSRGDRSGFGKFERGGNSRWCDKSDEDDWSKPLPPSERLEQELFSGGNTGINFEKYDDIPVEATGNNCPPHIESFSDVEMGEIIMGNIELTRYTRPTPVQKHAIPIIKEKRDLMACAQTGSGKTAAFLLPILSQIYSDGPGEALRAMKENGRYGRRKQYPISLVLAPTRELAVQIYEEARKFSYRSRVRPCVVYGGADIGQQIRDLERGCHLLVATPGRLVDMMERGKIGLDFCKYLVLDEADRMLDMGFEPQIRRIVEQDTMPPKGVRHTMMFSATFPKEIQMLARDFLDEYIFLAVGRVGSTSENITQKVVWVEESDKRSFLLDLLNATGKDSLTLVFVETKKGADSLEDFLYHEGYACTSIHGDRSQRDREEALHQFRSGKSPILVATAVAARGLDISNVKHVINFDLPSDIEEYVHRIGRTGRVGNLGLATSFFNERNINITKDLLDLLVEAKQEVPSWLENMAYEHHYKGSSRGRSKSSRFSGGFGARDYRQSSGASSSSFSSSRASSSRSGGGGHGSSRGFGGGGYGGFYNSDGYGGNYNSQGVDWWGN

[3] = biological target: Serine/threonine-protein kinase/endoribonuclease IRE2 (Homo sapiens, UniProt Q76MJ5)
Serine/threonine-protein kinase/endoribonuclease IRE2, sequence (Q76MJ5 whole entry): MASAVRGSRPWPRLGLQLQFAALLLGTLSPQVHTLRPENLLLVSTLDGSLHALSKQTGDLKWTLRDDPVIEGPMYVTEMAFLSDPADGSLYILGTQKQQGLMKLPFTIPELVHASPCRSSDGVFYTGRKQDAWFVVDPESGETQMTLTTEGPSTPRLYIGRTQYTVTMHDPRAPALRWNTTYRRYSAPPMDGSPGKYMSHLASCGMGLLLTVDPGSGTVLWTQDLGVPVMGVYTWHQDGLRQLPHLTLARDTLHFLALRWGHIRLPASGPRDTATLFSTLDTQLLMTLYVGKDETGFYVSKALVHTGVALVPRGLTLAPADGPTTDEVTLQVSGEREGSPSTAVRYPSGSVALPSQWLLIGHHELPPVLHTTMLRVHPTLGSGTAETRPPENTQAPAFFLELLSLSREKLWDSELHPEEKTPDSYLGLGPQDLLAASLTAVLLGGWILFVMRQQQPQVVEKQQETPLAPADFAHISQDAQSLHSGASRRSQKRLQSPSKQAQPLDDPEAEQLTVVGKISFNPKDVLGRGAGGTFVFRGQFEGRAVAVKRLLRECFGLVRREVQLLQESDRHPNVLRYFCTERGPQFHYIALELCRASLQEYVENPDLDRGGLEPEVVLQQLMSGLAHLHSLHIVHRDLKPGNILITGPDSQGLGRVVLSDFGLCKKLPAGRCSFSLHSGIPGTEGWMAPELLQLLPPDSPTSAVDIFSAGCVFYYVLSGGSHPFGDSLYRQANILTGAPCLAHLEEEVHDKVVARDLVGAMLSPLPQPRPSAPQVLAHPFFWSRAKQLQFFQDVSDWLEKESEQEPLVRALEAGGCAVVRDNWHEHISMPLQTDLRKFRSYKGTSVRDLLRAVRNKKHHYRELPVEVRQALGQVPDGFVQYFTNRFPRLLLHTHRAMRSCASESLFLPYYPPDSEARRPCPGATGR

[4] = biological target: Tyrosine-protein kinase Lck (Homo sapiens, UniProt P06239)
Tyrosine-protein kinase Lck, sequence (P06239 whole entry): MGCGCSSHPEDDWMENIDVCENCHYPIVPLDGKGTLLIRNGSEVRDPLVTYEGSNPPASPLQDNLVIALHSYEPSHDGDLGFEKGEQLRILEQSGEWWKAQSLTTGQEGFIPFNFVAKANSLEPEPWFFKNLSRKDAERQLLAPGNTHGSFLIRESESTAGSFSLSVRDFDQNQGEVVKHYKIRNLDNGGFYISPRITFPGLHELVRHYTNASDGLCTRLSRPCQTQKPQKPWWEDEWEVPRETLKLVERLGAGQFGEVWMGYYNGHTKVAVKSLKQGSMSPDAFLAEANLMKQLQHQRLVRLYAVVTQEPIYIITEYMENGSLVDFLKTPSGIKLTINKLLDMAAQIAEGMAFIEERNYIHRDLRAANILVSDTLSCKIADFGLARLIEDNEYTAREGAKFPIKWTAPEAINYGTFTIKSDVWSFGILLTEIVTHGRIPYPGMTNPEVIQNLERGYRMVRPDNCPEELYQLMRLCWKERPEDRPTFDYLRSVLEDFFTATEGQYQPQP

[5] = biological target: T1, Ribosyldihydronicotinamide dehydrogenase [quinone] (Homo sapiens, UniProt P16083)
T1 sequence (P16083 whole entry): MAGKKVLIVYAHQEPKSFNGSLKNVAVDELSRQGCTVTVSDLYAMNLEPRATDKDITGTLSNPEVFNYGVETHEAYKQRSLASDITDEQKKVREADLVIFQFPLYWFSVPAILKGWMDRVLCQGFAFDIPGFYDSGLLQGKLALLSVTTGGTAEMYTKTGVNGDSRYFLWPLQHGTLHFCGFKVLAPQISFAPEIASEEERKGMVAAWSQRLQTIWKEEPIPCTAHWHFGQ

[6] = biological target: T2, ATP-dependent 6-phosphofructokinase, platelet type (Homo sapiens, UniProt Q01813)
T2 sequence (Q01813 whole entry): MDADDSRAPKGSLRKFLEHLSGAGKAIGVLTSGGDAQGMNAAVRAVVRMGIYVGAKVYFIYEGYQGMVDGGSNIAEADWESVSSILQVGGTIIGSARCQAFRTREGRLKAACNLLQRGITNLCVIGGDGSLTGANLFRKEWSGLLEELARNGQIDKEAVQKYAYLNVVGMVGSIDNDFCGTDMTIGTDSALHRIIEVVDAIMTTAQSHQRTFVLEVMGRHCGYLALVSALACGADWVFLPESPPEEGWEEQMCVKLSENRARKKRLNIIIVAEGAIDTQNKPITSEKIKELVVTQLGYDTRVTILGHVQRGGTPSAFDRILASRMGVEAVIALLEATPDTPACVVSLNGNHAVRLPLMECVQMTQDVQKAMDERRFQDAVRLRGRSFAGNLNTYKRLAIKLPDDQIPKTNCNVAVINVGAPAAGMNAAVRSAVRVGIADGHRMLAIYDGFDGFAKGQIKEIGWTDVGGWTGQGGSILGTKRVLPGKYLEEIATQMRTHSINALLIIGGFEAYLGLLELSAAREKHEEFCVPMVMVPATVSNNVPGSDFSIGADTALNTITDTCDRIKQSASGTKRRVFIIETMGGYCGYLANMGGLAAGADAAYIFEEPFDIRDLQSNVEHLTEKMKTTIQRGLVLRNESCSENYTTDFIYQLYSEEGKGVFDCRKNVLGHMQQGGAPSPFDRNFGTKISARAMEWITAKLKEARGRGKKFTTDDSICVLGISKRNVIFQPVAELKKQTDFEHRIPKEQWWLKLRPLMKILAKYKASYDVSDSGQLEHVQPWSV

[7] = biological target: U5 small nuclear ribonucleoprotein 200 kDa helicase (Homo sapiens, UniProt O75643)
U5 small nuclear ribonucleoprotein 200 kDa helicase, sequence (O75643 whole entry): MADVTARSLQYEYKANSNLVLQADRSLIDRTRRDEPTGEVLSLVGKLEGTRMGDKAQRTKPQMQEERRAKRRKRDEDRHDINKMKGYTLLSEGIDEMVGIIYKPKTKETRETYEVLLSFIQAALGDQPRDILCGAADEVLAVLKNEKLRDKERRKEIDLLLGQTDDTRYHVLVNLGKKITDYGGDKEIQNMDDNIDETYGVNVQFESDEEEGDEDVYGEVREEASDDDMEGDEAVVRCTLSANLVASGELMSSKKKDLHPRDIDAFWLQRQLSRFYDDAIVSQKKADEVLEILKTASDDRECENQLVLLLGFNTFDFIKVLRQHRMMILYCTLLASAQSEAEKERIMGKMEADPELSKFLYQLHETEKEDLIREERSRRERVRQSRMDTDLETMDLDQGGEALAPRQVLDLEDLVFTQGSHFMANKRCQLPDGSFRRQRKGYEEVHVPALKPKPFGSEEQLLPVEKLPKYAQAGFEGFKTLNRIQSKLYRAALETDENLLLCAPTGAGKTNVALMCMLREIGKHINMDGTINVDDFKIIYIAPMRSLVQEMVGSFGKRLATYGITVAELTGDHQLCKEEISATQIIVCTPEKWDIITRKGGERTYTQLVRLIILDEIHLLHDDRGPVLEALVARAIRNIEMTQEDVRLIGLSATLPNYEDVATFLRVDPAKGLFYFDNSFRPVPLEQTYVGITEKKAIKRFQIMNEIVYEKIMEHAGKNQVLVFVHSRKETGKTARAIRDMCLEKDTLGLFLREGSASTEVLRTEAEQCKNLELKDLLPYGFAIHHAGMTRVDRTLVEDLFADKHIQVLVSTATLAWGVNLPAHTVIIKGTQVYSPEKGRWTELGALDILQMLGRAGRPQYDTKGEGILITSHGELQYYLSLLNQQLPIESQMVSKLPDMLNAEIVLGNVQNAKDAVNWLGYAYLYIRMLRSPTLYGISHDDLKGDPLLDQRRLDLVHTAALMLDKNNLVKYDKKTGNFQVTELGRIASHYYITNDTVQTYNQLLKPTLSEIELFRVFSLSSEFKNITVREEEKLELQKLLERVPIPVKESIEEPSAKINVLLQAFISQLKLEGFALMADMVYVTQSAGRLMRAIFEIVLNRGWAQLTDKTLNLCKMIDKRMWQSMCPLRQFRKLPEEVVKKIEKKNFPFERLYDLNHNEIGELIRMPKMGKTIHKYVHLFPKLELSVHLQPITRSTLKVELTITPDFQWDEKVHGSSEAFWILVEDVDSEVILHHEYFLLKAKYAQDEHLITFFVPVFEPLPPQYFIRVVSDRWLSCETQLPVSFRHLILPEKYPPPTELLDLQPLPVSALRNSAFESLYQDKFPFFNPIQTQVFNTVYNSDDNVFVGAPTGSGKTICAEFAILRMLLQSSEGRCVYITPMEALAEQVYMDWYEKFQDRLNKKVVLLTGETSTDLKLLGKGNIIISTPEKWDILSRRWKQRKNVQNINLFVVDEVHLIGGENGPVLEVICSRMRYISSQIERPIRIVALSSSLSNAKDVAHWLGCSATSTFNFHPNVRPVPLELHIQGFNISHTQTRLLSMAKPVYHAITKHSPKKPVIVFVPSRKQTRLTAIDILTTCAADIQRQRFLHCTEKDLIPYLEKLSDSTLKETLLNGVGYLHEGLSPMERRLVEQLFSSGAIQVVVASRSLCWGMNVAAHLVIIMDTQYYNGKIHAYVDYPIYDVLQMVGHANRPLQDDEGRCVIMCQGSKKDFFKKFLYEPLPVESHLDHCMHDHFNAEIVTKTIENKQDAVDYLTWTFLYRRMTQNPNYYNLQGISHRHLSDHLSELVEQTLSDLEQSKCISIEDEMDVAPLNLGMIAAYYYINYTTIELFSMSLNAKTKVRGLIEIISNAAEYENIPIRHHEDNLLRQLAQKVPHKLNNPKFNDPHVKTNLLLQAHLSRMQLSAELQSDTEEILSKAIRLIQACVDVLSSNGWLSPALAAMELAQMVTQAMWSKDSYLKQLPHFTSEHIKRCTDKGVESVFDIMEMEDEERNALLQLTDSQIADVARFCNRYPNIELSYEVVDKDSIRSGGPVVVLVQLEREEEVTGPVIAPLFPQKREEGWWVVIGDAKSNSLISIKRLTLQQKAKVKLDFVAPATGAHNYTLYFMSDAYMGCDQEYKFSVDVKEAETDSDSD

[8] = biological target: Serine/threonine-protein kinase 26 (Homo sapiens, UniProt Q9P289)
Serine/threonine-protein kinase 26, sequence (Q9P289 whole entry): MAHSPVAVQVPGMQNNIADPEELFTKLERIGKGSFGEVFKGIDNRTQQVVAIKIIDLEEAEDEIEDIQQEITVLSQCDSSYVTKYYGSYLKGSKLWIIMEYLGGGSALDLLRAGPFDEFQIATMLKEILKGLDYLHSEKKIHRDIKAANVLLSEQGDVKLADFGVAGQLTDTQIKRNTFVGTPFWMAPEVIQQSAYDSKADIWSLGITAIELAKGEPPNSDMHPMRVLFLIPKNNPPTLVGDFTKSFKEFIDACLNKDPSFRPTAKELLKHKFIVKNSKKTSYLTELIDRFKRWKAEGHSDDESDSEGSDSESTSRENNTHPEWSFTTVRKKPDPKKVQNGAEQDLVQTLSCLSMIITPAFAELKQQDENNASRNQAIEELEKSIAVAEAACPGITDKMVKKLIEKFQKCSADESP

[9] = biological target: T3, Serine/threonine-protein kinase TAO3 (Homo sapiens, UniProt Q9H2K8)
T3 sequence (Q9H2K8 whole entry): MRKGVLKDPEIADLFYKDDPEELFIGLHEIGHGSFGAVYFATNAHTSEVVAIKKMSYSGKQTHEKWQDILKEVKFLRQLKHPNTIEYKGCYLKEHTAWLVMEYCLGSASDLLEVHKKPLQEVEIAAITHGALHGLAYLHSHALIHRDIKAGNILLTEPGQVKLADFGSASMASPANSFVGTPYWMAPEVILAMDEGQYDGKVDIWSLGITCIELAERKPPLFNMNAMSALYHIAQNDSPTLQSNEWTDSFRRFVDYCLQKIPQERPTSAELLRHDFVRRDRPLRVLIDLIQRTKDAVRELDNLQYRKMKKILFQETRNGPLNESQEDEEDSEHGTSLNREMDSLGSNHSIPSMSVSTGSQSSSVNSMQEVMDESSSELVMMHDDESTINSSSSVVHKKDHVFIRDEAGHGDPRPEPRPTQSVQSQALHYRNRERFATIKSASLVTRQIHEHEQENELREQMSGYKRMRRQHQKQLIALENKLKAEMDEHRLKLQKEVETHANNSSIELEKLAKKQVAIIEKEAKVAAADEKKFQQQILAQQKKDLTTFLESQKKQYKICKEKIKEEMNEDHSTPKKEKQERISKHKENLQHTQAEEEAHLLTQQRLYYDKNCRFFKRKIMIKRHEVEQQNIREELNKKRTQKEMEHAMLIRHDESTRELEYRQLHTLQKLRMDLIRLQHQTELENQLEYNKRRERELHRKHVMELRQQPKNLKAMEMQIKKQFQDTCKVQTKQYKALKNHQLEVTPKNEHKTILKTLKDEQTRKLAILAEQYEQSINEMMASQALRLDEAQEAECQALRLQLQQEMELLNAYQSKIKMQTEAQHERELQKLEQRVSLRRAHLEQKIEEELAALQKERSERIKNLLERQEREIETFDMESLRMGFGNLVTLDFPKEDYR
Note: in the data inactive means no Kd found up to 30 µM.

| SMILES | Kd [1] | Kd [2] | Kd [3] | Kd [4] | Kd [5] | Kd [6] | Kd [7] | Kd [8] | Kd [9] |
| --- | --- | --- | --- | --- | --- | --- | --- | --- | --- |
| COCCNCc1ccc(-c2cc3nccc(Oc4ccc(NC(=S)NC(=O)Cc5ccc(F)cc5)cc4F)c3s2)nc1 [GLESATINIB] | > 30 µM (inactive) | > 30 µM (inactive) | > 30 µM (inactive) | 0.092 µM (active) | > 30 µM (inactive) | > 30 µM (inactive) | > 30 µM (inactive) | > 30 µM (inactive) | > 30 µM (inactive) |
| CCN1CCN(Cc2ccc(-c3cc4c(N[C@H](C)c5ccccc5)ncnc4[nH]3)cc2)CC1 [AEE-788] | > 30 µM (inactive) | > 30 µM (inactive) | > 30 µM (inactive) | > 30 µM (inactive) | > 30 µM (inactive) | > 30 µM (inactive) | > 30 µM (inactive) | > 30 µM (inactive) | > 30 µM (inactive) |
| CN1CC[C@@H](c2c(O)cc(O)c3c(=O)cc(-c4ccccc4Cl)oc23)[C@@H]1CO | > 30 µM (inactive) | > 30 µM (inactive) | > 30 µM (inactive) | > 30 µM (inactive) | > 30 µM (inactive) | > 30 µM (inactive) | > 30 µM (inactive) | > 30 µM (inactive) | > 30 µM (inactive) |
| COc1cc(OC)c(/C=C/S(=O)(=O)Cc2ccc(OC)c(NCC(=O)O)c2)c(OC)c1 [RIGOSERTIB] | > 30 µM (inactive) | > 30 µM (inactive) | > 30 µM (inactive) | > 30 µM (inactive) | 15.2 µM (active) | > 30 µM (inactive) | > 30 µM (inactive) | > 30 µM (inactive) | > 30 µM (inactive) |
| COc1cc2nccc(Oc3ccc(NC(=O)Nc4cc(C)on4)c(Cl)c3)c2cc1OC [TIVOZANIB] | > 30 µM (inactive) | > 30 µM (inactive) | > 30 µM (inactive) | 2.18 µM (active) | > 30 µM (inactive) | > 30 µM (inactive) | > 30 µM (inactive) | > 30 µM (inactive) | > 30 µM (inactive) |
| CC[C@@H]1C(=O)N(C)c2cnc(Nc3ccc(C(=O)N[C@H]4CC[C@H](N5CCN(CC6CC6)CC5)CC4)cc3OC)nc2N1C(C)C [VOLASERTIB] | 0.195 µM (active) | > 30 µM (inactive) | > 30 µM (inactive) | > 30 µM (inactive) | > 30 µM (inactive) | > 30 µM (inactive) | > 30 µM (inactive) | > 30 µM (inactive) | > 30 µM (inactive) |
| Cc1cc2c(F)c(Oc3ncnn4cc(OC[C@@H](C)OC(=O)[C@H](C)N)c(C)c34)ccc2[nH]1 [BRIVANIB ALANINATE] | > 30 µM (inactive) | > 30 µM (inactive) | > 30 µM (inactive) | > 30 µM (inactive) | > 30 µM (inactive) | > 30 µM (inactive) | > 30 µM (inactive) | > 30 µM (inactive) | > 30 µM (inactive) |
| CN1N=C(N)c2cn([C@@H]3O[C@H](COP(=O)(O)O)[C@@H](O)[C@H]3O)c3ncnc1c23 [TRICIRIBINE PHOSPHATE] | > 30 µM (inactive) | > 30 µM (inactive) | > 30 µM (inactive) | > 30 µM (inactive) | > 30 µM (inactive) | > 30 µM (inactive) | > 30 µM (inactive) | > 30 µM (inactive) | > 30 µM (inactive) |
| Cc1cc([C@@H](C)Nc2ccccc2C(=O)O)c2nc(N3CCOCC3)cc(=O)n2c1 [AZD-6482] | > 30 µM (inactive) | > 30 µM (inactive) | > 30 µM (inactive) | > 30 µM (inactive) | > 30 µM (inactive) | > 30 µM (inactive) | > 30 µM (inactive) | > 30 µM (inactive) | > 30 µM (inactive) |
| COC(=O)[C@@]1(O)C[C@H]2O[C@]1(C)n1c3ccccc3c3c4c(c5c6ccccc6n2c5c31)C(=O)NC4 [K-252A] | 2.28 µM (active) | > 30 µM (inactive) | 0.908 µM (active) | > 30 µM (inactive) | 4.03 µM (active) | > 30 µM (inactive) | > 30 µM (inactive) | > 30 µM (inactive) | > 30 µM (inactive) |
| CCS(=O)(=O)N1CC(CC#N)(n2cc(-c3ncnc4[nH]ccc34)cn2)C1 [BARICITINIB] | > 30 µM (inactive) | > 30 µM (inactive) | > 30 µM (inactive) | > 30 µM (inactive) | > 30 µM (inactive) | > 30 µM (inactive) | > 30 µM (inactive) | > 30 µM (inactive) | > 30 µM (inactive) |
| Cc1cc(-c2cc(O)ccc2Cl)cc2nnc(Nc3ccc(OCCN4CCCC4)cc3)nc12 | > 30 µM (inactive) | > 30 µM (inactive) | > 30 µM (inactive) | 0.002 µM (active) | > 30 µM (inactive) | > 30 µM (inactive) | > 30 µM (inactive) | > 30 µM (inactive) | > 30 µM (inactive) |
| O=C(c1ccc(F)c(F)c1Nc1ccc(I)cc1F)N1CC(O)([C@@H]2CCCCN2)C1 [COBIMETINIB] | > 30 µM (inactive) | > 30 µM (inactive) | > 30 µM (inactive) | > 30 µM (inactive) | > 30 µM (inactive) | > 30 µM (inactive) | > 30 µM (inactive) | > 30 µM (inactive) | > 30 µM (inactive) |
| COc1cc(N2CCC(N3CCN(C)CC3)CC2)ccc1Nc1ncnc(Nc2ccccc2S(=O)(=O)C(C)C)n1 [ASP-3026] | 9.13 µM (active) | > 30 µM (inactive) | > 30 µM (inactive) | 1.27 µM (active) | 6.36 µM (active) | > 30 µM (inactive) | > 30 µM (inactive) | > 30 µM (inactive) | > 30 µM (inactive) |
| O=c1sn(-c2cccc3ccccc23)c(=O)n1Cc1ccccc1 [TIDEGLUSIB] | > 30 µM (inactive) | > 30 µM (inactive) | > 30 µM (inactive) | > 30 µM (inactive) | > 30 µM (inactive) | > 30 µM (inactive) | > 30 µM (inactive) | > 30 µM (inactive) | > 30 µM (inactive) |
| C[C@@H](Nc1cc(F)cc(F)c1)c1cc(C(=O)N(C)C)cc2c(=O)cc(N3CCOCC3)oc12 [AZD-8186] | > 30 µM (inactive) | > 30 µM (inactive) | 1.5 µM | > 30 µM (inactive) | > 30 µM (inactive) | > 30 µM (inactive) | > 30 µM (inactive) | > 30 µM (inactive) | > 30 µM (inactive) |
| Cc1ccc(S(=O)(=O)Nc2nc3ccccc3nc2Nc2ccc3nsnc3c2)cc1 | > 30 µM (inactive) | > 30 µM (inactive) | > 30 µM (inactive) | > 30 µM (inactive) | > 30 µM (inactive) | > 30 µM (inactive) | > 30 µM (inactive) | > 30 µM (inactive) | > 30 µM (inactive) |
